Experimental data reported in patent publication US20020061839A1, “Serine peptidase modulators” (priority 1998, published 2002).
Where a name gives a salt, the structure may show the parent alone. Read-outs that look alike come from different tables or passages of the source.

Columns and labels:
Prolyl oligopeptidase = target: T1, Prolyl oligopeptidase (Homo sapiens, UniProt P48147); test: Inhibition of prolyl oligopeptidase (PO), Z-Gly-Pro-AMC substrate; type: biochemical; settings: PO from human platelets, 20 min at 37° C.
T1 construct: Prolyl oligopeptidase was purified from human platelets; from tissue; host or cells: human platelets
T1 sequence (P48147 1-710): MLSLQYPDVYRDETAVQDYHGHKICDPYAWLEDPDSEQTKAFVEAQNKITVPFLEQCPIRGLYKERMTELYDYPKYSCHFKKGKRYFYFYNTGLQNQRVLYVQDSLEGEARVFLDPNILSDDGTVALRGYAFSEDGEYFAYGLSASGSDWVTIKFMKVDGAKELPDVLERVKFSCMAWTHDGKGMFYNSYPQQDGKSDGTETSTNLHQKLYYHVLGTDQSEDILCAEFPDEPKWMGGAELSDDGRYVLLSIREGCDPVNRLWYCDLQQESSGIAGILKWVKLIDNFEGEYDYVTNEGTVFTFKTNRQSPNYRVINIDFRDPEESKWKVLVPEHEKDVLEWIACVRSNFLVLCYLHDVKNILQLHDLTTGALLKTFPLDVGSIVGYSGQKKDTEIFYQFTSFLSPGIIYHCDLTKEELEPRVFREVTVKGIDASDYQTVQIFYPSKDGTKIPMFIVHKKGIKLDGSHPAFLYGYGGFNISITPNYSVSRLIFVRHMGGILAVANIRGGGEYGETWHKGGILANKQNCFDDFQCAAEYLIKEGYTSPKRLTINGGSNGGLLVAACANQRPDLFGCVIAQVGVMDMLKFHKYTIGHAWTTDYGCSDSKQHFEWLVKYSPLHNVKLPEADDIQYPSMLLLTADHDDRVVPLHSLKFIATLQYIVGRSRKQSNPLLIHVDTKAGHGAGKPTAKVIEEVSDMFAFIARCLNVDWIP
Protocol: Prolyl oligopeptidase was purified from human platelets and the enzyme activity was measured using Z—Gly—Pro—AMC (4.4 mM) as the substrate in a K-phosphate buffer 100 mM, pH 7.5 containing 1 EM EDTA, 1 mM dithiothreitol and 1 mM NaN3. The incubation was carried out during 20 min at 37° C. The reaction was stopped by the addition of 5 volumes 1.5 M acetic acid. Fluorescence was measured at 370 and 440 nm as excitation and emission wavelengths respectively. The inhibitors were added at concentrations varying between 1 μM and 1 mM.

in vitro = settings: human, plasma
DPP IV = target: T2, DPP IV (Homo sapiens, UniProt P27487); test: biochemical; type: biochemical; settings: for kinact/KI: 0.25 h, pH 8.3, read-out: kcalc (second order rate constant of inactivation)
T2 construct: DPP IV was purified from human seminal plasma as described previously; from tissue; host or cells: human seminal plasma
Protocol: Enzymatic activity was measured at 37° C. in a Spectramax 340 (Molecular Devices) microtiterplate reader using Gly—Pro-p-nitroanilide (Sigma) as a chromogenic substrate. […] The reaction mixture contained 2 mM substrate, approximately 1 mU of DPP IV, 40 EM TRIS-HCl buffer, pH 8.3, and a suitable amount of inhibitor (ranging between 0 an 10 mM) in a total volume of 0.2 ml. Activity measurements were routinely performed in duplicate.
Stock solutions were diluted with 50 mM TRIS-HCl buffer, pH 8.3, as required, immediately before the experiment. […] For a simple pseudo-first order inactivation process, the activity after incubation with inhibitor (vi) varies with the inhibitor concentration (i) as described in the following equation: vi=vo * e-k.i.t, where vo is the activity in absence of inhibitor, k is the second order rate constant of inactivation and t is the time.

[1] = 15 min pre-incubation with DPP IV at 37° C., average ± standard deviation

T2 sequence (P27487 whole entry): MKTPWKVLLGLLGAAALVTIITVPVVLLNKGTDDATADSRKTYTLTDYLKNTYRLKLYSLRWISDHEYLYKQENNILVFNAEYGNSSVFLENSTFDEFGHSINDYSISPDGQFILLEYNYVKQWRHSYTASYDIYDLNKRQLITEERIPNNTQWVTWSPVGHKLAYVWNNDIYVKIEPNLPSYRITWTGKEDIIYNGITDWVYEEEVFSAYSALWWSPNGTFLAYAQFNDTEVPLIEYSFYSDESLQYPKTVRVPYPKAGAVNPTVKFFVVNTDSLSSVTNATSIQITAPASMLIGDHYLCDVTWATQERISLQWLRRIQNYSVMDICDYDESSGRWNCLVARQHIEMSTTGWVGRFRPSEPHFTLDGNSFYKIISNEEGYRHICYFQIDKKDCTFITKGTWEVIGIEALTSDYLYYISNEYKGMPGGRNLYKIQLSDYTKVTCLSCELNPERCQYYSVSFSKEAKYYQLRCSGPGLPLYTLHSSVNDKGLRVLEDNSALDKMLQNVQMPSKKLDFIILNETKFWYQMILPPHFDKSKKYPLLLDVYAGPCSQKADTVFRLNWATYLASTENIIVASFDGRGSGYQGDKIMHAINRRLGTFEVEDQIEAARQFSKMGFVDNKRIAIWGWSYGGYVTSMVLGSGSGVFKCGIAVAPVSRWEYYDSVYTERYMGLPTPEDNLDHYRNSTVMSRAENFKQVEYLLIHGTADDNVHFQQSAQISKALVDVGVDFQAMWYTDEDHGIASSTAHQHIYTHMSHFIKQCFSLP

In the case of `CC(=O)Nc1cccc(OP(=O)(Oc2cccc(NC(C)=O)c2)C2CCCN2C(=O)[C@@H]2CCCN2C(=O)OCc2ccccc2)c1` (mixture of isomers) [10d, Di(3-acetamidophenyl) 1-(benzyloxycarbonyl-(S)-prolyl)-pyrrolidine-2(R,S)-phosphonate], the IC50 (Prolyl oligopeptidase) is reported as 10 µM.

With `Cl.O=C(CNC(=O)c1ccccc1)Nc1ccc(OP(=O)(Oc2ccc(NC(=O)CNC(=O)c3ccccc3)cc2)C2CCCN2C(=O)[C@@H]2CCCN2)cc1` (mixture of isomers) [11h, Di[4-(N-benzoylglycylamino)phenyl]-1-((S)-prolyl)pyrrolidine-2(R,S)-phosphonate hydrochloride] the half-life at 1 mM (in vitro) was 1.55 ± 0.05 h.

Compound `C[C@H](N)C(=O)Nc1ccc(OP(=O)(Oc2ccc(NC(=O)[C@H](C)N)cc2)C2CCCN2C(=O)[C@@H]2CCCN2)cc1` (mixture of isomers) [11j, Di(4-(S)-alanylaminophenyl)-1-((S)-prolyl)pyrrolidine-2(R,S)-phosphonate trihydrochloride] has a kinact/KI (DPP IV) of 1300 M⁻¹ s⁻¹, an IC50 (DPP IV; [1]) of 0.6 ± 0.2 µM and a half-life at 1 mM (in vitro) of 0.133 ± 0.0167 h.

In the case of `Cl.Cl.Cl.NCC(=O)Nc1ccc(OP(=O)(Oc2ccc(NC(=O)CN)cc2)C2CCCN2C(=O)[C@@H]2CCCN2)cc1` (mixture of isomers) [11i, Di[4-(N-glycylamino)phenyl]-1-((S)-prolyl)-pyrrolidine-2(R,S)-phosphonate trihydrochloride], the half-life at 1 mM (in vitro) is reported as 0.467 ± 0.05 h.

`COC(=O)CCNC(=O)c1ccc(OP(=O)(Oc2ccc(C(=O)NCCC(=O)OC)cc2)C2CCCN2C(=O)[C@@H]2CCCN2C(=O)OCc2ccccc2)cc1` (mixture of isomers) [10o, Di{4-[2-(methoxycarbonyl)ethylaminocarbonyl]phenyl}1-(benzyloxycarbonyl-(S)-prolyl)-pyrrolidine-2(R,S)-phosphonate] showed an IC50 (Prolyl oligopeptidase) of 2.8 µM.

Work on `CCCNC(=O)c1ccc(OP(=O)(Oc2ccc(C(=O)NCCC)cc2)C2CCCN2C(=O)[C@@H]2CCCN2C(=O)OCc2ccccc2)cc1` (mixture of isomers) [10p, Di[4-(n-propylaminocarbonyl)phenyl]1-(benzyloxycarbonyl-(S)-prolyl)-pyrrolidine-2(R,S)-phosphonate] yielded an IC50 (Prolyl oligopeptidase) of 3.2 µM.

`CCOC(=O)CNC(=O)c1ccc(OP(=O)(Oc2ccc(C(=O)NCC(=O)OCC)cc2)C2CCCN2C(=O)[C@@H]2CCCN2C(=O)OCc2ccccc2)cc1` (mixture of isomers) [10n, Di{4-[(ethoxycarbonyl)methylaminocarbonyl]phenyl}1-(benzyloxycarbonyl-(S)-prolyl)-pyrrolidine-2(R,S)-phosphonate] showed an IC50 (Prolyl oligopeptidase) of 5 µM.

`COC(=O)C(Cc1ccc(OP(=O)(Oc2ccc(CC(NC(C)=O)C(=O)OC)cc2)C2CCCN2C(=O)C2CCCN2)cc1)NC(C)=O` [11l, Di{4-[-(S)-(2-methoxycarbonyl-2-acetamido)ethyl]phenyl}1-((S)-prolyl)pyrrolidine-2-phosphonate hydrochloride] gave an IC50 (DPP IV) of 1.4 µM, a kinact/KI (DPP IV) of 550 M⁻¹ s⁻¹ and a half-life at 1 mM (in vitro) of 3.17 ± 2.5 h.

For `COP(=O)(Oc1ccccc1-c1ccccc1O)C1CCCN1C(=O)[C@@H]1CCCN1` (mixture of isomers) [compound 18, 2-(2′-Hydroxyphenyl)phenyl methyl 1-(S)-prolyl)-pyrrolidine-2(R,S)-phosphonate hydrochloride], the IC50 (DPP IV) was 47 µM, the kinact/KI (DPP IV) was 16 M⁻¹ s⁻¹ and the half-life at 1 mM (in vitro) was 2.33 ± 1.33 h.

`COC(=O)CCNC(=O)c1ccc(OP(=O)(Oc2ccc(C(=O)NCCC(=O)OC)cc2)C2CCCN2C(=O)[C@@H]2CCCN2)cc1.Cl` (mixture of isomers) [11o, Di{4-[2-(methoxycarbonyl)ethylaminocarbonyl]phenyl}1-((S)-prolyl)-pyrrolidine-2(R,S)-phosphonate hydrochloride] gave a half-life at 1 mM (in vitro) of 0.433 ± 0.0167 h.

With `CS(=O)(=O)Nc1ccc(OP(=O)(Oc2ccc(NS(C)(=O)=O)cc2)C2CCCN2C(=O)[C@@H]2CCCN2)cc1.Cl` (mixture of isomers) [11f, Di(4-methylsulfonylaminophenyl) 1-((S)-prolyl)-pyrrolidine-2(R,S)-phosphonate hydrochloride] the “potency compared to the diastereoisomeric mixture 5” value (DPP IV; DPP IV inhibition) was “about 100 times” and the half-life at 1 mM (in vitro) was 2.5 ± 0.5 h.

Work on `O=C1CC[C@@H](C(=O)Nc2ccc(OP(=O)(Oc3ccc(NC(=O)[C@@H]4CCC(=O)N4)cc3)C3CCCN3C(=O)[C@@H]3CCCN3)cc2)N1` (mixture of isomers) [11k, Di(4-(S)-pyroglutamylaminophenyl)-1-((S)-prolyl)pyrrolidine-2(R,S)-phosphonate hydrochloride] yielded a kinact/KI (DPP IV) of 150 M⁻¹ s⁻¹, an IC50 (DPP IV; [1]) of 5 ± 0.8 µM and a half-life at 1 mM (in vitro) of 2.83 ± 0.5 h.

For `CS(=O)(=O)Nc1ccc(OP(=O)(Oc2ccc(NS(C)(=O)=O)cc2)C2CCCN2C(=O)[C@@H]2CCCN2C(=O)OCc2ccccc2)cc1` (mixture of isomers) [10f, Di(4-methylsulfonylaminophenyl) 1-(benzyloxycarbonyl-(S)-prolyl)pyrrolidine-2(R,S)-phosphonate], the IC50 (Prolyl oligopeptidase) was 10 µM.

With `CC(=O)Nc1cccc(OP(=O)(Oc2cccc(NC(C)=O)c2)C2CCCN2C(=O)[C@@H]2CCCN2)c1.Cl` (mixture of isomers) [11d, Di(3-acetamidophenyl) 1-((S)-prolyl)pyrrolidine-2(R,S)-phosphonate hydrochloride] the half-life at 1 mM (in vitro) was 3.67 ± 0.5 h.

For `COC(=O)[C@H](Cc1ccc(OP(=O)(Oc2ccc(C[C@H](NC(C)=O)C(=O)OC)cc2)C2CCCN2C(=O)[C@@H]2CCCN2C(=O)OCc2ccccc2)cc1)NC(C)=O` (mixture of isomers) [10l, Di{4-[-(S)-(2-methoxycarbonyl-2-acetamido)ethyl]phenyl}1-(benzyloxycarbonyl-(S)-prolyl)pyrrolidine-2(R,S)-phosphonate], the IC50 (Prolyl oligopeptidase) was 20 µM.

`CC(=O)Nc1ccc(OP(=O)(Oc2ccc(NC(C)=O)cc2)C2CCCN2C(=O)[C@@H]2CCCN2C(=O)OCc2ccccc2)cc1` (mixture of isomers) [10e, Di(4-acetamidophenyl) 1-(benzyloxycarbonyl-(S)-prolyl)-pyrrolidine-2(R,S)-phosphonate] showed an IC50 (Prolyl oligopeptidase) of 21 µM.

Compound `NC(=O)Nc1cccc(OP(=O)(Oc2cccc(NC(N)=O)c2)C2CCCN2C(=O)[C@@H]2CCCN2)c1` (mixture of isomers) [11g, Di(3-ureylphenyl) 1-((S)-prolyl)pyrrolidine-2(R,S)-phosphonate hydrochloride] has a kinact/KI (DPP IV) of 330 M⁻¹ s⁻¹, an IC50 (DPP IV; [1]) of 2.3 ± 0.3 µM and a half-life at 1 mM (in vitro) of 3.5 ± 1.33 h.

`O=C(CNC(=O)c1ccccc1)Nc1ccc(OP(=O)(Oc2ccc(NC(=O)CNC(=O)c3ccccc3)cc2)C2CCCN2C(=O)[C@@H]2CCCN2C(=O)OCc2ccccc2)cc1` (mixture of isomers) [10h, Di[4-(N-benzoylglycylamino)phenyl]-1-(benzyloxycarbonyl-(S)-prolyl)pyrrolidine-2(R,S)-phosphonate] gave an IC50 (Prolyl oligopeptidase) of 12 µM.

Compound `O=C(CNC(=O)OCc1ccccc1)Nc1ccc(OP(=O)(Oc2ccc(NC(=O)CNC(=O)OCc3ccccc3)cc2)C2CCCN2C(=O)[C@@H]2CCCN2C(=O)OCc2ccccc2)cc1` (mixture of isomers) [10i, Di[4-(N-benzyloxycarbonylglycylamino)phenyl]-1-(benzyloxycarbonyl-(S)-prolyl)pyrrolidine-2(R,S)-phosphonate] has an IC50 (Prolyl oligopeptidase) of 15 µM.

In the case of `CCCNC(=O)c1ccc(OP(=O)(Oc2ccc(C(=O)NCCC)cc2)C2CCCN2C(=O)[C@@H]2CCCN2)cc1.Cl` (mixture of isomers) [11p, Di[4-(n-propylaminocarbonyl)phenyl]1-((S)-prolyl)-pyrrolidine-2(R,S)-phosphonate hydrochloride], the half-life at 1 mM (in vitro) is reported as 0.2 ± 0.0167 h.
